Laboratory results published in PubChem BioAssay AID651861 (The Scripps Research Institute Molecular Screening Center, 2012).

Experiments:
Test in all cases: binding mode on PAD1, PAD2, PAD3, biochemical, colorimetric, substrate dialysis, late-stage follow-up (AID 651861); call rule not given here
[1] = target: Protein-arginine deiminase type-1 (Homo sapiens) (UniProt Q9ULC6); conditions: recombinant PAD1-3, post-dialysis BAEE citrulline colorimetric; PAD1; at 100 µM; stronger effect = lower value
[2] = target: Protein-arginine deiminase type-2 (Homo sapiens) (UniProt Q9Y2J8); conditions: recombinant PAD1-3, post-dialysis BAEE citrulline colorimetric; PAD2; at 100 µM; stronger effect = lower value
[3] = target: Protein-arginine deiminase type-3 (Homo sapiens) (UniProt Q9ULW8); conditions: recombinant PAD1-3, post-dialysis BAEE citrulline colorimetric; PAD3; at 100 µM; stronger effect = lower value

Measured: residual activity after dialysis

Sequence of Protein-arginine deiminase type-1 (Homo sapiens) (Q9ULC6 whole entry, looked up): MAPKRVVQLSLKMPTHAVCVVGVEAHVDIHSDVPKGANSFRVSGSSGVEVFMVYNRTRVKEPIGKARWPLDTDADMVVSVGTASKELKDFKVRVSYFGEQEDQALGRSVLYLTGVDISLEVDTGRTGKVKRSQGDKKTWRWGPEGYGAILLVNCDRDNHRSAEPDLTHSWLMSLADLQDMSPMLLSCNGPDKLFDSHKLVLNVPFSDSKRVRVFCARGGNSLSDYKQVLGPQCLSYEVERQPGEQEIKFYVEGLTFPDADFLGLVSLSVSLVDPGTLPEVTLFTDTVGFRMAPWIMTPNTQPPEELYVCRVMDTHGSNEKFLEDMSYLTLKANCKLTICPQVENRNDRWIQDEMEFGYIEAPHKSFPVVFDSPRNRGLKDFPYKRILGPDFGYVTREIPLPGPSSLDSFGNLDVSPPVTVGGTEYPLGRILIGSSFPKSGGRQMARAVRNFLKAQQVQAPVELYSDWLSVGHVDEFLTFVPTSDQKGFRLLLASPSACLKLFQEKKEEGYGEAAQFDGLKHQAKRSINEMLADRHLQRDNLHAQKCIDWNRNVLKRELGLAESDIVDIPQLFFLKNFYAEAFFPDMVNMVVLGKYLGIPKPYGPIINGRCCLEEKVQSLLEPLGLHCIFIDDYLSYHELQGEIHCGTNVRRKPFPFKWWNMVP
Sequence of Protein-arginine deiminase type-2 (Homo sapiens) (Q9Y2J8 whole entry, looked up): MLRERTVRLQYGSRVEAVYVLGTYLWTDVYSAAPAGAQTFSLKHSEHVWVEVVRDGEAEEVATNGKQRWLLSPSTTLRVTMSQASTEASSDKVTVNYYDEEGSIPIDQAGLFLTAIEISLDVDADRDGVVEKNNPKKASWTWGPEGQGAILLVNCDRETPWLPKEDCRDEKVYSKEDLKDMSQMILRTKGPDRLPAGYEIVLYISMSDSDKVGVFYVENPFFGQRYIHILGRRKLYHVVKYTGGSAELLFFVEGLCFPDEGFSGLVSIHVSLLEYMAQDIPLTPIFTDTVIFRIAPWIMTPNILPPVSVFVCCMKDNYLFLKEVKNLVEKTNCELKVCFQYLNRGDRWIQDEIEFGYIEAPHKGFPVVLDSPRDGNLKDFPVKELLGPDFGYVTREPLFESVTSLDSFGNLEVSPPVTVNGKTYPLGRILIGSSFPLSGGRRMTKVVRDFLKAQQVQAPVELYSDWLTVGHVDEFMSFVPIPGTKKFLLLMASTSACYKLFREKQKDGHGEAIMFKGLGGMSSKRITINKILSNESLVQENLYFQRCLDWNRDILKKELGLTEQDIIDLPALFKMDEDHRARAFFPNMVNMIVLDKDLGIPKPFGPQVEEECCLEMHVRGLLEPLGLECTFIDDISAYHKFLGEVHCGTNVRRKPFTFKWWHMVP
Sequence of Protein-arginine deiminase type-3 (Homo sapiens) (Q9ULW8 whole entry, looked up): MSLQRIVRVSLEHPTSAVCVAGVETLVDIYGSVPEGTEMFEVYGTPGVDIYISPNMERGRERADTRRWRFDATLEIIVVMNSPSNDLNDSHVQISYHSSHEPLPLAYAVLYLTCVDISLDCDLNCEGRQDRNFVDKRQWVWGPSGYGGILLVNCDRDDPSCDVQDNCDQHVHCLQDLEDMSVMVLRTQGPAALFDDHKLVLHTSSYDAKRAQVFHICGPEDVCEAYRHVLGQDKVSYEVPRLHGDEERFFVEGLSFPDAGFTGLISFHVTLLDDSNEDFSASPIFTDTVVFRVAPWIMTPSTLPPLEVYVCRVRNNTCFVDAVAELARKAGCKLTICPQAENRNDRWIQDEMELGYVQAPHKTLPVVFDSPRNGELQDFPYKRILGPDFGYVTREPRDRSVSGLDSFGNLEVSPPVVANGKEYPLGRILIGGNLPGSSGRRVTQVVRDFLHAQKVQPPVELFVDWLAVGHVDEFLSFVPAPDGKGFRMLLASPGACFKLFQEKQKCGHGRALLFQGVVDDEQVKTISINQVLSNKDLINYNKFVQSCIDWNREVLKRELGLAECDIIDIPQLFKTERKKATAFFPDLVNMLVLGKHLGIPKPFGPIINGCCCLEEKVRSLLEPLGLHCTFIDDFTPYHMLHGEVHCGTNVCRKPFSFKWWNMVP

NC1=CC(=O)c2ccc(-c3cccc(C(=O)O)n3)nc2C1=O
active: [1] 10.2% | [2] 5.3% | [3] 1.2%
